Laboratory results: US11680050B2, “Crystalline forms of ozanimod and ozanimod hydrochloride, and processes for preparation thereof” (RECEPTOS LLC, priority 2016, dated 2023)
Values after ≈ are worked out from the molar mass of the structure shown. Where a name gives a salt, the structure may show the parent alone.

Key:
Assay type in all cases: physicochemical
[1] = Hygroscopicity assessment by dynamic vapor sorption (DVS); conditions: for Hygroscopicity class according to the definition of hygroscopicity: Chinese Pharmacopoeia 2015, 25° C., 80% RH; for Weight gain under 80% RH: DVS, 25° C.
Procedure: Dynamic Vapor Sorption (DVS) is measured via an SMS (Surface Measurement Systems Ltd.) intrinsic DVS. Typical Parameters for DVS test are as follows:
Gas and flow rate: N2, 200 mL/min
RH range: 0% RH to 95% RH […]
Dynamic vapor sorption (DVS) was applied to test hygroscopicity of Form CS1 of ozanimod hydrochloride with about 10 mg of samples.
Description and definition of hygroscopicity (Chinese Pharmacopoeia 2015 edition appendix Drug hygroscopic test guidelines, test at 25° C.+/−1° C., 80% RH). • deliquescent: Sufficient water is absorbed to form a liquid; • very hygroscopic: Increase in mass is equal to or greater than 15 percent; • hygroscopic: Increase in mass is less than 15 percent and equal to or greater than 2 percent; • slightly hygroscopic: Increase in mass is less than 2 percent and equal to or greater than 0.2 percent. • non hygroscopic or almost non hygroscopic: Increase in mass is less than 0.2 percent.

[2] = Stability assessment in constant temperature and humidity chambers (HPLC purity, XRPD crystalline form); conditions: for 1 week purity % / 2 week purity % / 4 week purity %: HPLC; for 2 week purity %: 2 weeks; for Change of the crystalline form: XRPD; for Stability, overall conclusion of the storage test: after storage under all conditions tested for the form
Procedure: (§1) Three solid samples of Form CS1 were placed in constant temperature and humidity chambers at 25° C./60% RH, 40° C./75% RH and 60° C./75% RH for 4 weeks. XRPD was used to test the crystalline form at the end of week 4. HPLC was used to measure the chemical purity at the end of week 1, 2, and 4. The XRPD comparison result is shown in FIG. 31 (from top to bottom: XRPD pattern of Form CS1 before and after being stored under 25° C./60% RH, 40° C./75% RH and 60° C./75% RH for 4 weeks), and the results are shown in Table 20.
as §1, with “Four” for “Three”, “CS2” for “CS1”, “weeks and 80° C. for 1 week.” for “weeks.”, “32” for “31”, “weeks and 80° C. for 1 week),” for “weeks),”, “21.” for “20.”
as §1, with “Form CS3” for “Form CS1”, “comparison pattern” for “comparison result”, “FIG. 33” for “FIG. 31”, “Table 22.” for “Table 20.”
as §1, with “Form CS5” for “Form CS1”, “for 2” for “for 4”, “[…].” for “4. HPLC was used to measure the chemical purity at the end of week 1, 2, and 4.”, “comparison pattern” for “comparison result”, “FIG. 34” for “FIG. 31”, “Table 23.” for “Table 20.”
Two samples of Form CS6 were placed in constant temperature and humidity chambers at 25° C./60% RH and 40° C./75% RH for 4 weeks. XRPD was used to test the crystalline form at the end of week 4. HPLC was used to measure the chemical purity at the end of week 1, 2, and 4.The XRPD comparison result is shown in FIG. 35 (from top to bottom: XRPD pattern of Form CS6 before and after being stored under 25° C./60% RH and 40° C./75% RH for 4 weeks), and the results are shown in Table 24.
Four samples of Form CS1 of ozanimod hydrochloride were placed in constant temperature and humidity chambers at 25° C./60% RH, 40° C./75% RH and 60° C./75% RH for 4 weeks and 80° C. for 1 week. XRPD was used to test the crystalline form at the end of week 4. HPLC was used to measure the chemical purity at the end of week 1, 2, and 4. The XRPD comparison pattern is shown in FIG. 36 (from top to bottom: XRPD pattern of ozanimod hydrochloride Form CS1 before and after being stored under 25° C./60% RH, 40° C./75% RH and 60° C./75% RH for 4 weeks and 80° C. for 1 week), and the results are shown in Table 25.

[3] = Particle size distribution test (laser particle size analyzer, wet process); conditions: for MV, average particle size calculated by volume: dispersion medium Isopar G; for D10 / D50 (median diameter) / D90: volume distribution, Isopar G
Procedure: The particle size distribution test in the present disclosure is acquired by the S3500 laser particle size analyzer of Microtrac. Microtrac S3500 is equipped with the SDC (Sample Delivery Controller). The test is carried out by wet process, and the dispersion medium is Isopar G The parameters are as follow:
Certain amount of samples of Form CS1, Form CS2, Form CS3, Form CS5, Form CS6 of ozanimod and Form CS1 of ozanimod hydrochloride were taken for particle size distribution test.

[4] = Solubility assessment of saturated solutions in SGF, FeSSIF and water, measured by HPLC
Procedure: Form CS1 and Form CS1 of ozanimod hydrochloride were suspended into SGF (Simulated gastric fluids) and FeSSIF (Fed state simulated intestinal fluids, pH=5.0) to obtain saturated solutions. After being equilibrated for 1 h, 4 h and 24 h, concentrations of the saturated solutions were measured by HPLC.
Form CS3 and Form CS5 were suspended into SGF (Simulated gastric fluids) and water, and Form CS2 was suspended into FeSSIF (Fed state simulated intestinal fluids) to obtain saturated solutions. After being equilibrated for 1 h, 4 h and 24 h, concentrations of the saturated solutions were measured by HPLC.

[5] = Mechanical stability, manual grinding for 5 minutes in mortar, XRPD; conditions: ground manually for 5 minutes, XRPD before and after
Procedure: Solid samples of Form CS3, Form CS5, Form CS6 of ozanimod and Form CS1 of ozanimod hydrochloride were ground manually for 5 minutes in mortar.

In the case of `CC(C)Oc1ccc(-c2nc(-c3cccc4c3CC[C@@H]4NCCO)no2)cc1C#N` [Form CS1 of ozanimod hydrochloride, ozanimod hydrochloride], the “Hygroscopicity class according to the definition of hygroscopicity” value (“Hygroscopicity class according” for short) [1] was “slightly hygroscopic (Increase in mass is less than 2 percent and equal to or greater than 0.2 percent)”, the “Weight gain under 80% RH” value ([1]; hydrochloride) was 0.55% and the “Weight gain under 80% RH” value ([1]; listed as ozanimod hydrochloride Form CS1, hydrochloride) was 0.55%. The “1 week purity %” value ([2]; 25° C./60% RH, 1 week, hydrochloride) was 99.18%, the “2 week purity %” value ([2]; 25° C./60% RH, hydrochloride) was 99.13% and the “4 week purity %” value ([2]; 25° C./60% RH, 4 weeks, hydrochloride) was 99.22%. For the same compound, the “Change of the crystalline form” value ([2]; 25° C./60% RH, 4 weeks) was “No change”, the “1 week purity %” value ([2]; 40° C./75% RH, 1 week, hydrochloride) was 99.15% and the “2 week purity %” value ([2]; 40° C./75% RH, hydrochloride) was 99.12%. For the same compound, the “4 week purity %” value ([2]; 40° C./75% RH, 4 weeks, hydrochloride) was 99.24%, the “Change of the crystalline form” value ([2]; 40° C./75% RH, 4 weeks) was “No change” and the “1 week purity %” value ([2]; 60° C./75% RH, 1 week, hydrochloride) was 99.25%. The “2 week purity %” value ([2]; 60° C./75% RH, hydrochloride) was 99.25%, the “4 week purity %” value ([2]; 60° C./75% RH, 4 weeks, hydrochloride) was 99.36% and the “Change of the crystalline form” value ([2]; 60° C./75% RH, 4 weeks) was “No change”. For the same compound, the “1 week purity %” value ([2]; 80° C., 1 week, hydrochloride) was 99.34%, the “Change of the crystalline form” value ([2]; 80° C., 1 week) was “No change” and the “Stability, overall conclusion of the storage test” value (shortened to “Stability, overall conclusion”) [2] was “good stability”. The “MV, average particle size calculated by volume” value ([3]; hydrochloride) was 200.7 μm, the D10 ([3]; hydrochloride) was 20.84 μm and the “D50 (median diameter)” value ([3]; hydrochloride) was 180.8 μm. The D90 ([3]; hydrochloride) was 397.7 μm, the Solubility ([4]; FeSSIF (pH=5.0), 4 h, hydrochloride) was 1500 µg/mL and the “Form change under mechanical stress” value [5] was “No form change”.
For `CC(C)Oc1ccc(-c2nc(-c3cccc4c3CC[C@@H]4NCCO)no2)cc1C#N` [Form CS1, ozanimod], the “Hygroscopicity class according” value [1] was “slightly hygroscopic (Increase in mass is less than 2 percent and equal to or greater than 0.2 percent)”, the “Weight gain under 80% RH” value [1] was 0.36% and the “1 week purity %” value ([2]; 25° C./60% RH, 1 week) was 99.12%. For the same compound, the “2 week purity %” value ([2]; 25° C./60% RH) was 99.18%, the “4 week purity %” value ([2]; 25° C./60% RH, 4 weeks) was 98.97% and the “Change of the crystalline form” value ([2]; 25° C./60% RH, 4 weeks) was “No change”. The “1 week purity %” value ([2]; 40° C./75% RH, 1 week) was 99.16%, the “2 week purity %” value ([2]; 40° C./75% RH) was 99.17% and the “4 week purity %” value ([2]; 40° C./75% RH, 4 weeks) was 98.92%. The “Change of the crystalline form” value ([2]; 40° C./75% RH, 4 weeks) was “No change”, the “1 week purity %” value ([2]; 60° C./75% RH, 1 week) was 99.26% and the “2 week purity %” value ([2]; 60° C./75% RH) was 99.13%. The “4 week purity %” value ([2]; 60° C./75% RH, 4 weeks) was 98.71%, the “Change of the crystalline form” value ([2]; 60° C./75% RH, 4 weeks) was “No change” and the “Stability, overall conclusion” value [2] was “good stability”. The “MV, average particle size calculated by volume” value [3] was 22.40 μm, the D10 [3] was 3.15 μm and the “D50 (median diameter)” value [3] was 11.20 μm. For the same compound, the D90 [3] was 48.90 μm, the Solubility ([4]; FeSSIF (pH=5.0), 1 h) was 4200 µg/mL (≈ 10.4 mM) and the Solubility ([4]; FeSSIF (pH=5.0), 4 h) was 7300 µg/mL (≈ 18 mM). It also gave a Solubility ([4]; SGF, 1 h) of 6400 µg/mL (≈ 15.8 mM), a Solubility ([4]; SGF, 4 h) of 6300 µg/mL (≈ 15.6 mM) and a Solubility ([4]; SGF, 24 h) of 5900 µg/mL (≈ 14.6 mM). The solubility at 24 h ([4]; fed state simulated intestinal fluid (FeSSIF), pH 5, fessif, thermodynamic from solid, FeSSIF (pH=5.0), 24 h) was 7700 µg/mL (≈ 19 mM).
With `CC(C)Oc1ccc(-c2nc(-c3cccc4c3CC[C@@H]4NCCO)no2)cc1C#N` [Form CS2, ozanimod] the “Hygroscopicity class according” value [1] was “slightly hygroscopic (Increase in mass is less than 2 percent and equal to or greater than 0.2 percent)”, the “Weight gain under 80% RH” value [1] was 0.25% and the “1 week purity %” value ([2]; 25° C./60% RH, 1 week) was 99.85%. The “2 week purity %” value ([2]; 25° C./60% RH) was 99.63%, the “4 week purity %” value ([2]; 25° C./60% RH, 4 weeks) was 99.62% and the “Change of the crystalline form” value ([2]; 25° C./60% RH, 4 weeks) was “No change”. For the same compound, the “1 week purity %” value ([2]; 40° C./75% RH, 1 week) was 99.84%, the “2 week purity %” value ([2]; 40° C./75% RH) was 99.78% and the “4 week purity %” value ([2]; 40° C./75% RH, 4 weeks) was 99.55%. The “Change of the crystalline form” value ([2]; 40° C./75% RH, 4 weeks) was “No change”, the “1 week purity %” value ([2]; 60° C./75% RH, 1 week) was 99.91% and the “2 week purity %” value ([2]; 60° C./75% RH) was 99.60%. The “4 week purity %” value ([2]; 60° C./75% RH, 4 weeks) was 99.63%, the “Change of the crystalline form” value ([2]; 60° C./75% RH, 4 weeks) was “No change” and the “1 week purity %” value ([2]; 80° C., 1 week) was 99.71%. The “Change of the crystalline form” value ([2]; 80° C., 1 week) was “No change”, the “Stability, overall conclusion” value [2] was “good stability” and the “MV, average particle size calculated by volume” value [3] was 23.24 μm. For the same compound, the D10 [3] was 5.78 μm, the “D50 (median diameter)” value [3] was 14.20 μm and the D90 [3] was 42.35 μm. It also gave a Solubility ([4]; FeSSIF (pH=5.0), 1 h) of 2000 µg/mL (≈ 4.94 mM).
With `CC(C)Oc1ccc(-c2nc(-c3cccc4c3CC[C@@H]4NCCO)no2)cc1C#N` [Form CS6, ozanimod] the “Weight gain under 80% RH” value [1] was 1.68%, the “1 week purity %” value ([2]; 25° C./60% RH, 1 week) was 98.44% and the “2 week purity %” value ([2]; 25° C./60% RH) was 98.21%. For the same compound, the “4 week purity %” value ([2]; 25° C./60% RH, 4 weeks) was 98.27%, the “Change of the crystalline form” value ([2]; 25° C./60% RH, 4 weeks) was “No change” and the “1 week purity %” value ([2]; 40° C./75% RH, 1 week) was 98.47%. The “2 week purity %” value ([2]; 40° C./75% RH) was 98.33%, the “4 week purity %” value ([2]; 40° C./75% RH, 4 weeks) was 97.97% and the “Change of the crystalline form” value ([2]; 40° C./75% RH, 4 weeks) was “No change”. For the same compound, the “Stability, overall conclusion” value [2] was “good stability”, the “MV, average particle size calculated by volume” value [3] was 68.91 μm and the D10 [3] was 12.87 μm. For the same compound, the “D50 (median diameter)” value [3] was 46.47 μm, the D90 [3] was 161.7 μm and the “Form change under mechanical stress” value [5] was “No form change”.
